Source: US7666635B2, “Process for the preparation of amides” (priority 1997, dated 2010)
Where a name gives a salt, the structure may show the parent alone. Read-outs that look alike come from different tables or passages of the source.

Tests used:
[1] = test system: NA40 nitrile hydratase (resting NA40 cells); experiment: Substrate specificity of resting NA40 cells; type: cell-based, Amycolatopsis NA40; conditions: resting NA40 cells, 20° C., 10 min; 3-cyanopyridine = 100; substrate concentration per Table 8
Protocol: (3) For determination of the activity of NA40 with respect to a number of substrates, cells having a dry weight of 0.0388 mg were incubated in the buffer described above. The reaction was started by addition of the appropriate substrate and incubated at 20° C. with shaking for 10 min. The reaction was stopped by addition of 0.2 ml of 2 N HCl and the reaction mixture was briefly centrifuged. The supernatant was analysed by means of HPLC or gas chromatography.

[2] = test system: purified nitrile hydratase from NA40; experiment: Substrate specificity of the purified nitrile hydratase; type: biochemical, Amycolatopsis NA40; conditions: purified enzyme; 3-cyanopyridine = 100
Protocol: The substrate specificity was determined analogously to Example 2 (1).
1.7 Units of enzyme were added to the reaction mixture (2.0 ml). The reaction mixture contained the respective substrate in 45 mM phosphate buffer (pH 7.0).

[3] = test system: Rhodococcus rhodochrous J1; experiment: Substrate specificity of the Rhodococcus strains; type: cell-based; conditions: Rhodococcus rhodochrous J1; 3-cyanopyridine = 100
Protocol: (§1) Rhodococcus rhodochrous J1 was cultured for 72 h in the medium described in EP-A 0 307 926. The microorganisms Rhodoccus GF674, GF578, GF270 and GF376 were cultured in the following media at pH 7.0 for up to 96 h:
(§2) The substrate specificity is summarized as relative activity in Table 15.

[4] = test system: Rhodococcus GF270; experiment: Substrate specificity of the Rhodococcus strains; type: cell-based; conditions: Rhodococcus GF270; 3-cyanopyridine = 100
Protocol: as §1
(§3) Rhodoccus GF674 in a medium comprising yeast extract 1.0 g/l, fructose 5.0 g/l, malt extract 10.0 g/l, acetamide 5.0 g/l, KH2PO4 2.0 g/l, MgSO47H2O 0.5 g/l and CoCl2.6H2O 10.0 mg. Rhodoccus GF578 in a medium containing yeast extract 1.0 g/l, fructose 15.0 g/l, malt extract 10.0 g/l, acetamide 25.0 g/l, KH2PO4 2.0 g/l, MgSO47H2O 0.5 g/l and CoCl2.6H2O 5.0 mg. […] Rhodoccus GF3 76 in a medium containing yeast extract 1.0 g/l, sodium citrate 10.0 g/l, malt extract 15.0 g/l, butyramide 7.5 g/l, KH2PO4 2.0 g/l, MgSO4.7H2O 0.5 g/l and CoCl2.6H2O 15.0 mg.
as §2

[5] = test system: Rhodococcus GF376; experiment: Substrate specificity of the Rhodococcus strains; type: cell-based; conditions: Rhodococcus GF376; 3-cyanopyridine = 100
Protocol: as §1, §3, §2

[6] = test system: Rhodococcus GF578; experiment: Substrate specificity of the Rhodococcus strains; type: cell-based; conditions: Rhodococcus GF578; 3-cyanopyridine = 100
Protocol: as §1, §3, §2

[7] = test system: Rhodococcus GF674; experiment: Substrate specificity of the Rhodococcus strains; type: cell-based; conditions: Rhodococcus GF674; 3-cyanopyridine = 100
Protocol: as §1, §3, §2

[8] = test system: purified nitrile hydratase from NA40; type: biochemical, Amycolatopsis NA40
Protocol: The effect of various inhibitors was determined.

[9] = test system: Amycolatopsis NA40; experiment: Effects of inducers and cofactors on growth and nitrile hydratase activity in the basal medium; type: cell-based
Protocol: (§4) (1) For determination of the nitrile hydratase activity, a reaction mixture (2 ml) containing 3-cyanopyridine (1.0 M, 1.0 ml), potassium phosphate buffer (pH 7.0, 0.1 M, 0.5 ml) and 0.5 ml of cell suspension were incubated at 20° C. for 30 min with stirring. The reaction was stopped by addition of 0.2 ml of 3 N HCl. After centrifuging briefly, the nicotinamide formed was determined by means of HPLC (Shimadzu SPD 6A system using a C18 column (Develosil ODS-HG-5. […]); eluent: 10 mM KH2PO4/H3PO4 (pH 2.8)/acetonitrile 9:1 (v/v); flow rate: 1 ml/min; the absorption was measured at 230 nm). The specific activity was expressed as µmol of nicotinamide formed/ml/min/OD610 nm.
(§5) The reaction rates of aliphatic nitriles in the enrichment medium (Table 1) with isolated bacteria is summarized in Table 5, the effects of inducers and cofactors in the basal medium (Table 2) is summarized in Table 4 and the activity comparison of Amycolatopsis to Rhodoccus in the basal medium (Table 2) is summarized in Table 6.

[10] = test system: Amycolatopsis NA40; experiment: Effect of methanol on resting cells of NA40; type: cell-based; conditions: for Relative activity: 10 min
Protocol: The reaction was carried out for 10 min in the presence of 0 20% (v/v) methanol according to Table 13.

[11] = test system: Actinomadura spadix 45O1; experiment: Conversion rates of aliphatic nitriles using the isolated bacteria (enrichment medium); type: cell-based
Protocol: a) Various soil samples were inoculated with various nitriles or amides as a C and N source in the enrichment medium according to Table 1 and incubated at 37° C. or 45° C. for 7 10 days. The cultures were then transferred to the same medium and again cultured at 37° C. for 7 10 days. The whole process was repeated 3 times. The cultures were then diluted and plated out in order to obtain individual colonies. The plates were incubated at 37° C. for 5 days. The different colonies were then tested for the desired activity.
[…] as a C and N source for Amycolatopsis NE31 (DSMZ 11616) Actinomadura spadix E3733 and Actinomadura spadix E3736, azelanitrile served as a C and N source for Amycolatopsis NA40 (DSMZ 11617) and Actinomadura spadix 45A32, n-octanenitrile served as a C and N source for Actinomadura spadix 4501 and cyanoacetic acid served as a C and N source for Actinomadura spadix C15.
as §4, §5

[12] = substance added as inducer to basal medium
[13] = substance added as inducer to basal medium, nicotinamide formed from 3-cyanopyridine, 20° C.
[14] = substance added as cofactor to basal medium
[15] = inhibitor 1 mM, without inhibitor = 100

| Structure (SMILES) | Relative activity [1] [%] | Relative activity, Enzyme reaction [2] [%] | relative activity (substrate specificity) [3] [%] | relative activity (substrate specificity) [4] [%] | relative activity (substrate specificity) [5] [%] | relative activity (substrate specificity) [6] [%] | relative activity (substrate specificity) [7] [%] | other results |
| --- | --- | --- | --- | --- | --- | --- | --- | --- |
| N#Cc1cccnc1Cl [2-Chloro-3-cyanopyridine] | 126 | 90 | – | – | – | – | – | – |
| N#Cc1ccccn1 [2-Cyanopyridine] | 128 | 221 | 45 | 15.7 | 54.3 | 200 | 308 | – |
| O=C(O)c1cc[c]([Hg][Cl])cc1 [4-Chloromercurobenzoic acid] | – | – | – | – | – | – | – | Relative activity ([8]; inhibitor 0.1 mM, without inhibitor = 100): 69% |
| N#Cc1ccncc1 [4-Cyanopyridine] | 168 | 179 | 70 | 55.6 | 79.8 | 167 | 231 | – |
| Oc1cccc2cccnc12 [8-Hydroxyquinoline] | – | – | – | – | – | – | – | Relative activity [8]: 110% |
| CC#N [Acetonitrile] | – | – | 608 | 659 | 806 | 347 | 1.49 | – |
| N#Cc1ccccc1 [Benzonitrile] | 51 | 64 | 27 | 13.4 | 57.2 | 85.1 | 138 | – |
| CCCC(N)=O [Butyramide] | – | – | – | – | – | – | – | Growth (OD610 nm) [9, 12]: 2.19 OD610 nm; Specific activity [9, 12]: 0.88 μmol/ml/min/OD; Total activity [9, 13]: 0.19 µmol/mL/min |
| O.O.O.O.O.O.[Cl-].[Cl-].[Co+2] [CoCl2•6H2O] | – | – | – | – | – | – | – | Growth (OD610 nm) [9, 14]: 8.41 OD610 nm; Specific activity [9, 14]: 5.68 μmol/ml/min/OD; Total activity [9, 14]: 47.8 µmol/mL/min |
| C/C=C/C(N)=O [Crotonamide] | – | – | – | – | – | – | – | Growth (OD610 nm) [9, 12]: 3.41 OD610 nm; Specific activity [9, 12]: 6.72 μmol/ml/min/OD; Total activity [9, 13]: 22.9 µmol/mL/min |
| CC=CC#N [Crotononitrile] | 52 | 67 | 78.2 | 37.1 | 110 | 124 | 98.0 | – |
| CCN(CC)C(=S)S [Diethyl dithiocarbamate] | – | – | – | – | – | – | – | Relative activity [8, 15]: 89% |
| O=C(O)CN(CCN(CC(=O)O)CC(=O)O)CC(=O)O [EDTA, ethylenediaminetetra-acetic acid] | – | – | – | – | – | – | – | Relative activity [8]: 115% |
| O.O.O.O.O.O.O.O=S(=O)([O-])[O-].[Fe+2] [FeSO4•7H2O] | – | – | – | – | – | – | – | Growth (OD610 nm) [9, 14]: 8.32 OD610 nm; Specific activity [9, 14]: 0.40 μmol/ml/min/OD; Total activity [9, 14]: 3.36 µmol/mL/min |
| NO [Hydroxylamine] | – | – | – | – | – | – | – | Relative activity [8, 15]: 37% |
| O=C(O)CI [Iodoacetic acid] | – | – | – | – | – | – | – | Relative activity [8]: 39% |
| C=C(C)C(N)=O [Methacrylamide] | – | – | – | – | – | – | – | Growth (OD610 nm) [9, 12]: 3.33 OD610 nm; Specific activity [9, 12]: 0.74 μmol/ml/min/OD; Total activity [9, 13]: 2.46 µmol/mL/min |

| Structure (SMILES) | Relative activity [1] [%] | Relative activity, Enzyme reaction [2] [%] | relative activity (substrate specificity) [3] [%] | relative activity (substrate specificity) [4] [%] | relative activity (substrate specificity) [5] [%] | relative activity (substrate specificity) [6] [%] | relative activity (substrate specificity) [7] [%] | other results |
| --- | --- | --- | --- | --- | --- | --- | --- | --- |
| C=C(C)C#N [Methacrylonitrile] | 130 | 125 | 86.9 | 0 | 0 | 122 | 176 | – |
| CCN1C(=O)C=CC1=O [N-ethylmaleimide] | – | – | – | – | – | – | – | Relative activity [8, 15]: 97% |
| NNc1ccccc1 [Phenylhydrazine] | – | – | – | – | – | – | – | Relative activity [8, 15]: 8% |
| CCC(N)=O [Propionamide] | – | – | – | – | – | – | – | Growth (OD610 nm) [9, 12]: 1.91 OD610 nm; Specific activity [9, 12]: 0.48 μmol/ml/min/OD; Total activity [9, 13]: 0.92 µmol/mL/min |
| CCC#N [Propionitrile] | 105 | 222 | 434 | 37.3 | 245 | 132 | 274 | – |
| NNC(N)=O [Semicarbazide] | – | – | – | – | – | – | – | Relative activity [8, 15]: 82% |
| O=S(=O)(O)c1cc(O)c(O)c(S(=O)(=O)O)c1 [Tiron, disodium salt of 4,5-dihydroxy-1,3-benzene-disulphonic acid] | – | – | – | – | – | – | – | Relative activity [8, 15]: 110% |
| NC(N)=O [Urea] | – | – | – | – | – | – | – | Growth (OD610 nm) [9, 12]: 1.72 OD610 nm; Specific activity [9, 12]: 1.73 μmol/ml/min/OD; Total activity [9, 13]: 2.97 µmol/mL/min |
| N#Cc1cccc(Cl)c1 [m-Chlorobenzonitrile] | 75 | 90 | 43 | 8.41 | 8.63 | 28.9 | 27.8 | – |
| CO [methanol] | – | – | – | – | – | – | – | activity of resting NA40 cells ([10]; addition of 5 15% methanol): increased; Relative activity ([10]; methanol 5 % (v/v), 0 % = 100): 123%; Relative activity ([10]; methanol 10 % (v/v)): 128%; Relative activity ([10]; methanol 15 % (v/v)): 130%; Relative activity ([10]; methanol 20 % (v/v)): 105% |
| CCCC#N [n-Butyronitrile] | 194 | 101 | 352 | 181 | 195 | 368 | 491 | – |
| CCCCCCCC#N [n-octanenitrile] | – | – | – | – | – | – | – | Specific activity ([11]; strain 45O1): 4.45 μmol/ml/min/OD; Total activity ([11]; strain 45O1): 32.2 µmol/mL/min; Growth (OD610 nm) ([11]; strain 45O1, nitrile as substrate in enrichment medium): 7.24 OD610 nm |
| N#Cc1ccccc1Cl [o-Chlorobenzonitrile] | 96 | 127 | 2.8 | 0 | 0 | 49.0 | 64.8 | – |
| c1cnc2c(c1)ccc1cccnc12 [o-Phenanthroline] | – | – | – | – | – | – | – | Relative activity [8, 15]: 89% |
| c1ccc(-c2ccccn2)nc1 [α,α′-Dipyridyl] | – | – | – | – | – | – | – | Relative activity [8, 15]: 100% |
| O=C1CCCCCN1 [ε-Caprolactam] | – | – | – | – | – | – | – | Growth (OD610 nm) [9, 12]: 0.66 OD610 nm; Specific activity [9, 12]: 14.5 μmol/ml/min/OD; Total activity [9, 13]: 9.52 µmol/mL/min |
